According to paper PMC4268698, “Cell type-specific delivery of short interfering RNAs by dye-functionalised theranostic nanoparticles” (Nature Communications, 2014):
“Also recorded” adds a separate entry of the source.

Assays:
[1] = In vivo pharmacokinetics of polymethine dyes (organ-specific clearance by liver and kidneys); design: species or system male Wistar rats; conditions: i.v., rats
Method: Catheters were placed in the jugular vein, carotid artery, bladder and bile duct of male Wistar rats (300–400 g body weight (BW)). After i.v. administration of DY-635 (13 pmol per g BW), DY-630 (13 pmol per g BW), DY-750 (13 pmol per gBW), DY-751 (13 pmol per g BW), DY-731 (13 pmol per g BW), DY-777 (14 pmol per g BW), DY-682 (13 pmol per g BW), DY-704 (17 pmol per g BW), DY-732 (13 pmol per g BW), DY-754 (17 pmol per g BW), DY-678 (14 pmol per g BW), DY-778 (14 pmol per g BW) or 6.5 μg DY625-[NP] per g BW, bile was collected every 5 min and 200 μl arterial blood taken at defined times into heparinised tubes. DY-635 fluorescence in bile and plasma was measured in a spectrofluorometer (FluoStar Optima, BMG Labtech). Results are mean±s.e.m. of three biological replicates.

NTCP = target: T1, NTCP (Homo sapiens, UniProt Q14973); experiment: DY-635 interaction with hepatic basolateral transporters, transfected HEK293 cells, radio-labelled substrate uptake; assay type: cell-based; conditions: 10 μM DY-635; substrate [3H]estrone-sulfate 10 μM; transfected HEK cells
T1 construct: expressed in transfected cells; host or cells: HEK293 (pcDNA5 vector)
T1 sequence (Q14973 1-349): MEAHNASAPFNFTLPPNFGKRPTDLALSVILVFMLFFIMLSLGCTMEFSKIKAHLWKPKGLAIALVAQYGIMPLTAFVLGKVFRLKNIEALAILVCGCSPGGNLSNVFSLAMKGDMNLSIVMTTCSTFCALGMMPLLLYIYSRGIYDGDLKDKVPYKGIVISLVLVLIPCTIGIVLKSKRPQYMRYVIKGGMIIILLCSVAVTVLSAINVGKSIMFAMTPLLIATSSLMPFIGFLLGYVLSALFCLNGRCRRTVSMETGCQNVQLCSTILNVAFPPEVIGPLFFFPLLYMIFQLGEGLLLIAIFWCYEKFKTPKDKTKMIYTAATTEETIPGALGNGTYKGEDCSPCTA
Method: (§1) HEK293 cells were transfected with OATP1B1 (SLCO1B1, NM_006446), OATP1B3 (SLCO1B3, NM_019844), OCT1 (SLC22A1, NM_003057.2), OAT2 (SLC22A7, NM_006672), NTCP (SLC10A1, NM_003049), NaDC3 (SLC13A3, AF154121) or the empty vector (pcDNA5).Transfected HEK293 cells were seeded at 2 × 10^5 cells per well and cultured for 3 days.

OATP1B1 = target: T2, OATP1B1 (Homo sapiens, UniProt Q9Y6L6); experiment: as above; assay type: cell-based; conditions: 10 μM DY-635 vs rifampicin 20 μM; substrate [3H]estrone-sulfate 30 nM; transfected HEK cells
T2 construct: expressed in transfected cells; host or cells: HEK293 (pcDNA5 vector)
T2 sequence (Q9Y6L6 1-691): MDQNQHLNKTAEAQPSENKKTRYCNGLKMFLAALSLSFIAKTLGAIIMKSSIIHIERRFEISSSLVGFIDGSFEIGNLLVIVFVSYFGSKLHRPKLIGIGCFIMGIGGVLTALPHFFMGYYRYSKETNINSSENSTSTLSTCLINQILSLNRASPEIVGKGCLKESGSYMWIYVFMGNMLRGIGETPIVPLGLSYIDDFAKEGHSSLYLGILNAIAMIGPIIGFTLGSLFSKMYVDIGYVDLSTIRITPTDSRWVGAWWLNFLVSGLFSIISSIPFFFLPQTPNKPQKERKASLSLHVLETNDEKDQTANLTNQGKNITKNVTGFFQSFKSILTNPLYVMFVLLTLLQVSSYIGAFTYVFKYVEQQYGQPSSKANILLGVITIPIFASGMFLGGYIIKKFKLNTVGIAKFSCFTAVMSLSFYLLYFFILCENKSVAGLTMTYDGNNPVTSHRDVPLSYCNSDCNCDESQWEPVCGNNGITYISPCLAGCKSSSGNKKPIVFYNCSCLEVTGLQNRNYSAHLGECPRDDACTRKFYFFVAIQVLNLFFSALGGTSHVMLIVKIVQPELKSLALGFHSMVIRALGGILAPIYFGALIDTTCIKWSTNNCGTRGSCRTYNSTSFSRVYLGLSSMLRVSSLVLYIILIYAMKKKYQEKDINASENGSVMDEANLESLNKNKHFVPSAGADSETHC
Method: as §1

OATP1B3 = target: T3, OATP1B3 (Homo sapiens, UniProt Q9NPD5); experiment: as above; assay type: cell-based; conditions: 10 μM DY-635 vs rifampicin 20 μM; substrate [3H]sulfobromphthalein 50 nM; transfected HEK cells
T3 construct: expressed in transfected cells; host or cells: HEK293 (pcDNA5 vector)
T3 sequence (Q9NPD5 1-702): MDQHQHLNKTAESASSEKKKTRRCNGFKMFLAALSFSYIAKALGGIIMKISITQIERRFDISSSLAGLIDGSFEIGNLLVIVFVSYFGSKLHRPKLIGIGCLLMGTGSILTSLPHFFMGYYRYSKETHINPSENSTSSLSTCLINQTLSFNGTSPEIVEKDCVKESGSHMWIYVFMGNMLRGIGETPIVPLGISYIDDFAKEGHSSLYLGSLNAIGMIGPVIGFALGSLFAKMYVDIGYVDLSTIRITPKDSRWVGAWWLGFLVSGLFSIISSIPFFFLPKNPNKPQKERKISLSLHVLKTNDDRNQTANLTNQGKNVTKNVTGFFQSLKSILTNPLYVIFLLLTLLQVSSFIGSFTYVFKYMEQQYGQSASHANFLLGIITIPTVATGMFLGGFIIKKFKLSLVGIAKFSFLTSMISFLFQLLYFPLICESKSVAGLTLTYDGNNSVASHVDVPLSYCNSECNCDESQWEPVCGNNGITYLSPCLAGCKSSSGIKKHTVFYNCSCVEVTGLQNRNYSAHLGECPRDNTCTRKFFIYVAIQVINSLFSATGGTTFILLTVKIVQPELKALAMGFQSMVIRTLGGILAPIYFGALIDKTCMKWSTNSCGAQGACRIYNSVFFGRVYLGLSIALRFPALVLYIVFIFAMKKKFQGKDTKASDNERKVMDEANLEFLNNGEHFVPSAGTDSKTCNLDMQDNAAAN
Method: as §1

[2] = tested on: primary murine hepatocytes; experiment: Uptake of free DY-635 by primary hepatocytes, with and without cyclosporine A; assay type: cell-based, mouse; conditions: 37 or 4 °C
Method: This was then diluted 1:1 (v/v) with either 400 nM DY-635 (amino-terminated) or 10 μg NP in KHB. […] Lysates were analysed on a Tecan plate reader (Tecan) (excitation: 488±09 nm, emission 530±20 nm). […] Data were normalised to cellular protein (Bradford).

liver parenchyma = experiment: Intravital microscopy of liver (fluorescence decay, cellular association); assay type: in vivo, male FVB/NRj mice; conditions: Cy5 channel, after injection
Method: IVM was performed using an inverted epifluorescence microscope (AxioObserverR Z1; Zeiss) as described previously.

HepaRG and HUVEC cells = experiment: Microfluidic-assisted organoid, co-culture of HepaRG and HUVEC, nanoparticle uptake; assay type: cell-based, human
Method: HUVEC and HepaRG cells were co-cultured using a microfluidic-supported chip. […] 2.7 × 10^4 cells per cm^2 were seeded in William’s E medium supplemented with 10% foetal bovine serum, 100 U ml^−1 penicillin, 100 g ml^−1 streptomycin, 5 U ml^−1 insulin and 5 × 10^−5 M hydrocortisone-hemisuccinate and cultured for 2 weeks. For HepaRG differentiation, cells were cultured with 2% dimethylsulfoxide for two more weeks. Differentiated HepaRG cells were seeded at 4,000 cells per mm^2 at the bottom of the chip cavities beneath the membrane. 300,000 HUVEC (4,300 cells per mm^2) were seeded above the membrane and co-cultured with differentiated HepaRG cells in for 24 h before the uptake experiments. Cells were perfused with 50 μg ml^−1 NPs in Williams E medium. […] For each time point three pictures were taken and 200 region of interest (ROI) per picture were analysed.

| affinity to NTCP (NTCP) | uptake of DY-635 by primary hepatocytes [2] | fluorescence decay over liver parenchyma (liver parenchyma) | Structure (SMILES) | route of elimination (net organ-specific clearance) [1] | affinity to OATP1B1 compared with FDA-proposed competitor (OATP1B1) | affinity to OATP1B3 compared with FDA-proposed competitor (OATP1B3) | effect on uptake of DY-635[NP](−) (HepaRG and HUVEC cells) |
| --- | --- | --- | --- | --- | --- | --- | --- |
| moderate affinity | rapid, temperature sensitive | exponential decay | CC(C)(C)c1cc(/C=C/C=C2/N(CCCCCC(=O)NCCN)c3ccc(S(=O)(=O)O)cc3C2(C)C)c2cc3c4c(c2[o+]1)CCCN4CCC3 [DY-635] | excreted preferentially via the bile; also recorded: preferential hepatobiliary clearance | substantially exceeded that of the Food and Drug Administration (FDA) proposed ligand for drug development, rifampicin | substantially exceeded that of the Food and Drug Administration (FDA) proposed ligand for drug development, rifampicin | – |
| – | – | – | O=C1NC(=NS(=O)(=O)c2cccc3ccccc23)S/C1=C\c1ccc(Br)cc1 [Pitstop-2] | – | – | – | inhibition of NP uptake |
